Results on eleven compounds are retold here after patent publication US12527322B2, “Fungicidal compositions” (SYNGENTA CROP PROTECTION AG, priority 2020, dated 2026).

Where “and” joins values, the source holds several entries; their conditions need not be identical. Equal entries are not always repeated. Where two headings read alike, the source gives them in different places. *1 amine or outer side, *2 acyl side, *3 side chain or, on linkers, in order; H or OH if unused. Where a SMILES comes first, the peptide text is derived from it. [ ]: non-standard residue; d: D form. ξ: configuration not given here. ξNMeVal(3-OH) = CNC(C(=O)O)C(C)(C)O; NMeF = CN[CH](Cc1ccccc1)C(=O)O; X1 = CCC(C)C(O[*:1])C(=O)[*:2]; NMeV = CN[CH](C(=O)O)C(C)C

In assay [1] the test system is Alternaria solani. Kind of assay: Liquid culture test in well plates: Alternaria solani (early blight of tomato/potato), Example 1-2. The settings on record: for inhibition at 0.0012 ppm: component (B) alone at 0.0012 ppm. It is filed as cell-based. The procedure: Mycelia fragments or conidia suspensions of a fungus, prepared either freshly from liquid cultures of the fungus or from cryogenic storage, are directly mixed into nutrient broth. DMSO solutions of the test compound (max. 10 mg/mL) is diluted with 0.025% Tween20 by factor 50 and 10 μL of this solution is pipetted into a microtiter plate (96-well format). […] The test plates are incubated in the dark at 24° C. and 96% relative humidity (rh). […]
Conidia of the fungus from cryogenic storage were directly mixed into nutrient broth (PDB potato dextrose broth). After placing a DMSO solution of the test compositions into a microtiter plate (96-well format) the nutrient broth containing the fungal spores was added.

In assay [2] the test system is Botrytis cinerea. Kind of assay: Liquid culture test in well plates: Botrytis cinerea (Gray mould), Example 1-1. The class given is cell-based. The procedure: Mycelia fragments or conidia suspensions of a fungus, prepared either freshly from liquid cultures of the fungus or from cryogenic storage, are directly mixed into nutrient broth. DMSO solutions of the test compound (max. 10 mg/mL) is diluted with 0.025% Tween20 by factor 50 and 10 μL of this solution is pipetted into a microtiter plate (96-well format). […] The test plates are incubated in the dark at 24° C. and 96% relative humidity (rh). The inhibition of fungal growth is determined photometrically and visually after 3-7 days, depending on the pathosystem, and percent antifungal activity relative to the untreated check is calculated.
Conidia of the fungus from cryogenic storage were directly mixed into nutrient broth (PDB potato dextrose broth). After placing a DMSO solution of the test compositions into a microtiter plate (96-well format), the nutrient broth containing the fungal spores was added.

[3] abbreviates: Botrytis cinerea, component (B) alone at 0.0003 ppm, 72 hours.
Where [4] appears, read: Botrytis cinerea, component (B) alone at 0.0006 ppm, 72 hours, read-out: (B) inhibition.
The mark [5] stands for this setting: Botrytis cinerea, component (B) alone at 0.0012 ppm, 72 hours, read-out: (B) inhibition.
Setting [6] is: component (B) alone at 0.0006 ppm, 72 hours.
Where [7] appears, read: component (B) alone at 0.0012 ppm, 72 hours.
Setting [8] is: component (B) alone at 0.0050 ppm, 72 hours.
The mark [9] stands for this setting: Alternaria solani, component (B) alone at 0.0025 ppm, 48 hours, read-out: (B) inhibition.
Where [10] appears, read: Botrytis cinerea, component (B) alone at 0.0025 ppm, 72 hours.
[11] abbreviates: Botrytis cinerea, component (B) alone at 0.0050 ppm, 72 hours.
Setting [12] is: component (B) alone at 0.0003 ppm, 72 hours.
The mark [13] stands for this setting: component (B) alone at 0.0050 ppm, 48 hours.

With `Cc1ccc2c(ncn2C2=NC(C)(C)C(F)(F)c3c(F)cccc32)c1C` [B-8, 1-(4,5-dimethylbenzimidazol-1-yl)-4,4,5-trifluoro-3,3-dimethyl-isoquinoline], the inhibition at 0.0012 ppm in assay [1] (Alternaria solani, 48 hours) worked out at 38%; in assay [2] (setting [5]) it was 50%. The same compound yielded an inhibition at 0.0003 ppm in assay [2] (setting [3]) of 22%. For the same compound, the inhibition at 0.0006 ppm in assay [2] (setting [4]) amounted to 40%.
In the same order, the values of `Cc1ccc2c(ncn2C2=NC(C)(C)C(F)(F)c3ccccc32)c1C` [B-9, 1-(4,5-dimethylbenzimidazol-1-yl)-4,4-difluoro-3,3-dimethyl-isoquinoline] are 24%, 45%, 9% and 28%.
Take “N-[(1R)-1-benzyl-3,3,3-trifluoro-1-methyl-propyl]-8-fluoro-quinoline-3-carboxamide/N-[(1S)-1-benzyl-3,3,3-trifluoro-1-methyl-propyl]-8-fluoro-quinoline-3-carboxamide [B-3]”: the figures for the “(B) inhibition” value in assay [2] (setting [6]), in assay [2] (setting [7]) and in assay [2] (setting [8]) were 10%, 32% and 52%, respectively.
In the case of `Cc1ccc2c(C3=NC(C)(C)C(F)(F)c4cc(F)ccc43)cnn2c1C` [B-6, 1-(6,7-dimethylpyrazolo[1,5-a]pyridin-3-yl)-4,4,6-trifluoro-3,3-dimethyl-isoquinoline], the inhibition at 0.0006 ppm in assay [1] (Alternaria solani, component (B) alone at 0.0006 ppm, 48 hours) amounted to 22%; in assay [2] (setting [4]), 25%. The inhibition at 0.0012 ppm in assay [1] (Alternaria solani, 48 hours) was determined as 39%; in assay [2] (setting [5]) it was 34%. The inhibition at 0.0025 ppm in assay [1] (setting [9]) is 59%; in assay [2] (setting [10]), 68%. Moreover, in assay [2] (setting [11]), the inhibition at 0.005 ppm is 84%.
As for `CC1(C)N=C(c2cnc3ccccc3c2)c2ccccc2C1(F)F` [B-1, quinofumelin], the “(B) inhibition” value was determined as 27% in assay [2] (setting [12]) and 37% in assay [2] (component (B) alone at 0.0005 ppm, 72 hours).
On to `CCC(C)C1NC(=O)C2CCCN2C(=O)C(Cc2ccccc2)N(C)C(=O)C(Cc2ccccc2)NC(=O)C(C(C)C)N(C)C(=O)C(C(C)CC)OC(=O)C(C(C)(C)O)N(C)C(=O)C(CC(C)C)NC(=O)C(C(C)C)N(C)C1=O` (stereo not shown) [Aureobasidin A] (cyclo([ξNMeVal(3-OH)][X1][NMeV]F[NMeF]PI[NMeV]L); configuration not given here), for which the inhibition at 0.0001 ppm in assay [1] (Alternaria solani, 48 h, read-out: (A) inhibition, Aureobasidin A (A) alone at 0.0001 ppm) is 9%. Besides, in assay [1] (Alternaria solani, 48 h, read-out: (A) inhibition, Aureobasidin A (A) alone at 0.0025 ppm), the inhibition at 0.0025 ppm was 20%. In assay [1] (Alternaria solani, 48 h, read-out: (A) inhibition, Aureobasidin A (A) alone at 0.0050 ppm), the inhibition at 0.005 ppm stood at 5%. Besides, in assay [1] (Alternaria solani, 48 h, read-out: (A) inhibition, Aureobasidin A (A) alone at 0.0100 ppm), the inhibition at 0.01 ppm came to 17%. In assay [1] (Alternaria solani, 48 h, read-out: (A) inhibition, Aureobasidin A (A) alone at 0.0400 ppm), the inhibition at 0.04 ppm was found to be 36%. Also, the “(A) inhibition” value was 3% in assay [1] (Aureobasidin A (A) alone at 0.0050 ppm, 48 hours); 14% in assay [1] (Aureobasidin A (A) alone at 0.0100 ppm, 48 hours); 9% and 1% in assay [2] (Aureobasidin A (A) alone at 0.0003 ppm, 72 hours); 6% in assay [2] (Aureobasidin A (A) alone at 0.0006 ppm, 72 hours); 32% in assay [2] (Aureobasidin A (A) alone at 0.0200 ppm, 72 hours). For the same compound, the inhibition at 0.0002 ppm in assay [2] (Botrytis cinerea, 72 h, read-out: (A) inhibition, Aureobasidin A (A) alone at 0.0002 ppm) turned out to be 5%. Besides, in assay [2] (Botrytis cinerea, 72 h, read-out: (A) inhibition, Aureobasidin A (A) alone at 0.0006 ppm), the inhibition at 0.0006 ppm amounted to 9%. Also, in assay [2] (Botrytis cinerea, 72 h, read-out: (A) inhibition, Aureobasidin A (A) alone at 0.0012 ppm), the inhibition at 0.0012 ppm came to 9%.
Take `Cc1cccc2c(C3=NC(C)(C)C(F)(F)c4ccccc43)cnn12` [B-7, 4,4-difluoro-3,3-dimethyl-1-(7-methylpyrazolo[1,5-a]pyridin-3-yl)isoquinoline]: in assay [1] (Alternaria solani, component (B) alone at 0.0100 ppm, 48 hours, read-out: (B) inhibition), the inhibition at 0.01 ppm was determined as 63%. Further, in assay [2] (setting [4]), the inhibition at 0.0006 ppm came to 18%. In assay [2] (setting [5]), the inhibition at 0.0012 ppm was found to be 40%.
In the case of “N-[(1R)-1-benzyl-1,3-dimethyl-butyl]-8-fluoro-quinoline-3-carboxamide/N-[(1S)-1-benzyl-1,3-dimethyl-butyl]-8-fluoro-quinoline-3-carboxamide [B-2]”, the “(B) inhibition” value in assay [1] (component (B) alone at 0.0025 ppm, 48 hours) was determined as 0%; in assay [1] (setting [13]), 10%; in assay [1] (component (B) alone at 0.0100 ppm, 48 hours), 52%; in assay [2] (setting [12]), 2%; in assay [2] (setting [6]), 35%; in assay [2] (setting [8]) it was 70%.
Consider `Cc1ccc2c(C3=NC(C)(C)C(F)(F)c4c(F)cccc43)cnn2c1C` [B-5, 1-(6,7-dimethylpyrazolo[1,5-a]pyridin-3-yl)-4,4,5-trifluoro-3,3-dimethyl-isoquinoline], for which the inhibition at 0.0012 ppm stood at 30% in assay [1] (Alternaria solani, 48 hours) and 40% in assay [2] (setting [5]). The inhibition at 0.0025 ppm is 56% in assay [1] (setting [9]) and 57% in assay [2] (setting [10]). Besides, the inhibition at 0.0006 ppm in assay [2] (setting [4]) was found to be 17%. For the same compound, in assay [2] (setting [11]), the inhibition at 0.005 ppm turned out to be 75%.
Consider “N-[(1R)-1-benzyl-3-chloro-1-methyl-but-3-enyl]-8-fluoro-quinoline-3-carboxamide/N-[(1S)-1-benzyl-3-chloro-1-methyl-but-3-enyl]-8-fluoro-quinoline-3-carboxamide [B-4]”, for which the “(B) inhibition” value in assay [1] (setting [13]) is 32%; in assay [2] (setting [6]), 33%; in assay [2] (setting [7]) it was 46%; in assay [2] (component (B) alone at 0.0025 ppm, 72 hours), 60%.
Regarding `Cc1cccc2c1ncn2C1=NC(C)(C)C(F)(F)c2cc(Cl)ccc21` [B-10, 6-chloro-4,4-difluoro-3,3-dimethyl-1-(4-methylbenzimidazol-1-yl)isoquinoline], in assay [2] (setting [4]), the inhibition at 0.0006 ppm was determined as 21%. Further, in assay [2] (setting [5]), the inhibition at 0.0012 ppm was found to be 39%. In addition, the inhibition at 0.0025 ppm in assay [2] (setting [10]) was 49%.
